Measurements as given in patent publication US6239284A, “Aromatic tetracyclic compounds of the retinoid type method for preparing and use” (priority 1997, dated 2001).
“Also recorded” adds a separate entry of the source.

Legend:
RARα = assay: Transactivation of chimerical receptor RARα-ERcassette, transient transfection of HeLa cells; assay type: cell-based; conditions: for RAR-ERcassette RARα transactivation (%): 100% = TTNPB 10^-8 M
Description: (§1) The HeLa cells are co-transfected by a plasmid which codes for a retinoic receptor in which the C domain of bonding to the DNA is substituted by that of the receptor to RE estrogens, and a plasmid which places the expression of the luciferase under the control of an ERE (Element of Response to Estrogens). The expressed chimerical receptors are designated as RARα-ERcassette, RARβ-ERcassette, RARγ-ERcassette and RXRα-ERcassette. The A, B, D, E and F regions of the natural receptor are preserved as well as the transcriptional co-operation between the activation domains AF-1 and AF-2. These transitory transfection experiments follow the method of co-precipitation to calcium phosphate. The HeLa cells are co-transfected by […] of plasmid coding for the chimerical receptor, […] of reporter plasmid and […] of expression vector CMV-β-galactosidase used as an internal control of transfection. 24 hours after the transfection, the cells are incubated for 16 hours with the different effectors.
(§2) In this type of chimerical receptor, the C domain of bonding to the DNA of RAR is substituted by that of the receptor to the RE estrogens. The protein obtained is close to the natural RAR receptor and preserves the transcriptional properties of the AF-1 and AF-2 domains. It modulates the transcription by means of an ERE. This RAR-ERcassette model allows one to observe a transcriptional response to a more physiological ligand.
(§3) The study of the selectivity of the compounds was carried out with the RAR-ERcassette chimerical receptors model.
(§4) On one and the same line in the Table, the cis (Z) compound represents the isomeric structure of the trans (E) compound.

T-47D cells = assay: Anti-proliferation effect, estrogen-induced growth of T-47D cells; assay type: cell-based, human; conditions: Homo sapiens, T47D, 168 h, read-out: T-47D IC50 (growth inhibition by 50%)
Protocol: So as to test the anti-proliferation effect of the retinoids, growth experiments under oestrogenic conditions were carried out on cells MCF-7 and T-47D. These are the human estrogen-dependent mammary cancer cells which express the receptor to RE estrogens. The effect of the molecules is evaluated after 7 days of culture in oestrogenic conditions (estradiol 10^-9 M) by dosing the cellular DNA. The cells are distributed in 24 well plates at a density of 2×10^4 cells per well. The tests with the different retinoids are carried out in triplicate and the culture medium is changed after 4 days of growth.
The effect of the retinoids on the growth of MCF-7 and T-47D cells is evaluated after 7 days of culture in the presence of 10^-9 M estradiol by dosing the cellular DNA.

AP-1 = assay: Anti-AP-1 effect, MTLN cellular lineage (MCF-7 with (TRE)3-tk-Luc) activated by TPA; assay type: cell-based, human
Protocol: The anti-factor AP-1 transrepressor effect of retinoids is determined using the MTLN lineage, coming from MCF-7 cells transfected in a stable fashion by a vector p(TRE)3 -tk-Luc which places the expression of the gene of luciferase under the control of […]. TPA activates the AP-1 complex formed from proteins of the family of nuclear proto-oncogenes (c-Jun and c-Fos). […] The experiments ware made with the MTLN cells activated by 10^-7 M TPA.
The effect of the compounds on the MTLN cells activated by 10^-7 M TPA is expressed as a percentage. […] The inhibitive properties of the products are calculated after deduction of the base activity of the cells. The percentages reported correspond to a range of inhibitions determined from several experiments.

RARE [1] = assay: HRLN transactivation (stably transfected HeLa, RARE3-tk-Luc, endogenic receptors); assay type: cell-based
Description: (§5) The cellular lineages HRLN and HRL+N allow one to study the activation of an RARE by endogenic receptors using ligands at physiological concentrations. These lineages derive from HeLa cells transfected in a stable fashion by a reporter gene which places the expression of the gene of the luciferase under the control of a nuclear response element RARE (RARE3 -tk-Luc). The HeLa cells express all the known receptors of the retinoic acid (RARα,β,γ and RXRα,β,γ) with a predominance of RARα and RXRα. The response element RARE used for the HRLN cells corresponds to the sequence of the natural gene of the RARβ receptor (GGTTCAnnnnnAGTTCA). The HRL+N cells comprise the sequence GAGTGAnnnnnCGGTGA.

ERE = assay: Anti-estrogenic effect, MELN cellular lineage (MCF-7 with ERE-βGlob-Luc) activated by estradiol; assay type: cell-based, human; conditions: for inhibition at 1 µM: -6 log M (10^-6 M), 10^-9 M estradiol
Protocol: MCF-7 cells express RARα,γ and RXRα. The transfection of MCF-7 cells by an estrogen-dependent gene (ERE-βGlob-Luc) has permitted the establishment of the MELN cellular lineage, used to determine the anti-oestrogenic activity of the retinoids. These cells contain the gene of the luciferase under the transcriptional control of the promoter of the βGlobine and of the response element ERE isolated from the gene of chicken vitelogenine A2. The experiments are carried out with MELN cells activated by 10^-9 M estradiol. The level of base activity of the MELN cells is obtained with the anti-estrogen 1 μM 4-OH-tamoxifen (hydroxytamoxifen).
The effect of the products tested on the cells activated by 10^-9 M estradiol is expressed as a percentage, the level of base activity being deducted.

RAR = assay: RAR-ERcassette model, specificity profile (transient transfection of HeLa cells); assay type: cell-based
Description: as §1, §2, §3

RARβ = assay: Transactivation of chimerical receptor RARβ-ERcassette, transient transfection of HeLa cells; assay type: cell-based; conditions: -6 log M (1 μM); 100% = TTNPB 10^-8 M
Description: as §1, §2, §3, §4

RARγ = assay: Transactivation of chimerical receptor RARγ-ERcassette, transient transfection of HeLa cells; assay type: cell-based; conditions: -6 log M (1 μM); 100% = TTNPB 10^-8 M
Description: as §1, §2, §3, §4

RARE [2] = assay: HRL+N transactivation (stably transfected HeLa, RARE reporter, endogenic receptors); assay type: cell-based; conditions: Homo sapiens, HeLa; Table 12; 1 μM
Description: as §5
The HRL+N lineage allows one to visualize a co-activation of the RAR and RXR receptors at the level of the RAR-RXR hetero-dimer.

[3] = Homo sapiens, read-out: Anti-oestrogenic effect, Inhibition (%)

Compound | RAR-ERcassette RARα transactivation (%) (RARα; -6 log M (1 μM)) | HRLN transactivation in words (RARE [1]) | RAR-ERcassette profile in words (RAR) | RAR-ERcassette RARβ transactivation (%) (RARβ) | RAR-ERcassette RARγ transactivation (%) (RARγ) | activation at 1 µM (RARE [1]; Homo sapiens, HeLa) | inhibition at 1 µM (ERE; [3]) | also measured
CC1=C(/C=C/C(C)=C\C=C\C(C)=C\C(=O)O)C(C)(C)CCC1 [9-cis RA, reference compound] | 348% | dose-dependent activation | induce an over-expression of luciferase in comparison to the induction brought about by a synthetic compound (TTNPB) |  |  |  |  | RAR-ERcassette RARα transactivation (%) (RARα; -7 log M): 187%; RAR-ERcassette RARα transactivation (%) (RARα; -8 log M): 60%; RAR-ERcassette RARα transactivation (%) (RARα; -9 log M): 7%; IC50 (T-47D cells): 25.1 ± 1.4 nM; Anti-AP-1 effect, Inhibition (%) (AP-1; -8 log M, 10^-7 M TPA, range of several experiments): 30-37%; Emax (RARE [1]; Homo sapiens, HeLa, read-out: HRLN transactivation E max %): 196%; inhibition at 0.1 µM (ERE; [3]): 35%
CC1(C)CCC(C)(C)c2cc(/C=C3\CCCc4cc(C(=O)O)ccc43)ccc21 [CB66049, (E) 1-[2-(5,6,7,8-tetrahydro-5,5,8,8-tetramethyl)naphthalenylmethylene]-1,2,3,4-tetrahydronaphthalene-6-carboxylic acid] | 0% | inactive | The same result is observed | 0% | 8% | 0% |  | 
Cc1cc2c(cc1/C=C1\CCc3cc(-c4nnn[nH]4)ccc31)C(C)(C)CCC2(C)C [CB23804, (E) 5-[1-[2-(5,6,7,8-tetrahydro-3,5,5,8,8-pentamethyl)naphthalenylmethylene]-2,3-dihydro-1H-indenyl]-1H-tetrazole] | 4% | slightly active | weakly active | 28% | 19% | 15% | 0% | 
Cc1cc2c(cc1/C=C1\CCc3cc(C(=O)O)ccc31)C(C)(C)CCC2(C)C [CB40341, (E) 1-[2-(5,6,7,8-tetrahydro-3,5,5,8,8-pentamethyl)naphthalenylmethylene]-2,3-dihydro-1H-indene-5-carboxylic acid] | 14% | partial transactivation | RARβ,γ specificity; also recorded: RARβ,γ selectivity | 75% | 79% | 30% |  | RARα transactivation (RAR-ERcassette) in words (RARα): inactive on RARα
CC1Cc2cc(C(=O)O)ccc2/C1=C/c1ccc2c(c1)C(C)(C)CCC2(C)C (stereo not shown) [CB52809, (E) 1-[2-(5,6,7,8-tetrahydro-5,5,8,8-tetramethyl)naphthalenylmethylene]-2,3-dihydro-2-methyl-1H-indene-5-carboxylic acid] | 5% |  |  | 0% | 13% | 0% | 0% | 
CCCCCCCOc1cc2c(cc1/C(C)=C/c1ccc(C(=O)O)cc1)C(C)(C)CCS2(=O)=O [Ro 41-5253] |  | totally abolishes the response of Am580 and partially abolishes that of TTNPB |  |  |  |  |  | Anti-AP-1 effect (MTLN) in words (AP-1): does not allow the inhibition induced by TTNPB to be totally lifted; Anti-estrogenic effect (MELN) in words (ERE): raises the inhibitor effect of Am580 and also of TTNPB
CC1(C)CCC(C)(C)c2cc(/C=C3/CCc4cc(-c5nnn[nH]5)ccc43)ccc21 [CB94083, (Z) 5-[1-[2-(5,6,7,8-tetrahydro-5,5,8,8-tetramethyl)naphthalenylmethylene]-2,3-dihydro-1H-indenyl]-1H-tetrazole] | 4% |  | weakly active | 14% | 18% |  |  | activation at 1 µM (RARE [2]): 13%
CC1(C)CCC(C)(C)c2cc(/C=C3/CCc4cc(C(=O)O)ccc43)ccc21 [CB27871] | 29% | partial transactivation |  | 36% | 67% | 27% |  | 
CC1(C)CCC(C)(C)c2cc(/C=C3/CCCc4cc(C(=O)O)ccc43)ccc21 [CB80830, (Z) 1-[2-(5,6,7,8-tetrahydro-5,5,8,8-tetramethyl)naphthalenylmethylene]-1,2,3,4-tetrahydronaphthalene-6-carboxylic acid] | 2% | inactive | The same result is observed | 0% | 1% | 4% | 2% | 
CC1(C)CCC(C)(C)c2cc(/C=C3\CCc4cc(-c5nnn[nH]5)ccc43)ccc21 [CB99811, (E) 5-[1-[2-(5,6,7,8-tetrahydro-5,5,8,8-tetramethyl)naphthalenylmethylene]-2,3,-dihydro-1H-indenyl]-1H-tetrazole] | 3% |  | weakly active | 11% | 14% |  |  | 
CC1(C)CCC(C)(C)c2cc(/C=C3\CCc4cc(C(=O)O)ccc43)ccc21 [CB78937, (E) 1-[2-(5,6,7,8-tetrahydro-5,5,8,8-tetramethyl)naphthalenylmethylene]-2,3-dihydro-1H-indene-5-carboxylic acid] | 18% | partial transactivation | RARβ,γ specificity; also recorded: RARβ,γ selectivity | 65% | 93% | 25% | 4% | RARα transactivation (RAR-ERcassette) in words (RARα): inactive on RARα
